Laboratory results: patent US8802597B2, “Herbicidal pyrimidines” (E I du Pont de Nemours and Company, priority 2003, dated 2014)
Read-outs that look alike come from different tables or passages of the source.

How the values were obtained:
Test in all cases: Test C pre/postemergence
Format in all cases: in vivo
[1] = tested on: corn (Zea mays)
In short: (§1)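 We sprayed seeded pots preemergence and 2–18 cm seedlings postemergence with test chemicals in a non-phytotoxic solvent mixture including surfactant. Greenhouse plants were visually compared with untreated controls at 12 to 14 days and scored 0 (no effect) to 100 (complete control).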

[2] = tested on: goosegrass (Eleusine indica)
In short: as §1

[3] = tested on: Surinam grass (Brachiaria decumbens)
In short: as §1

[4] = Zea mays, post-emergence, Postemergence, 31 g ai/ha, read-out: Plant response rating (scale of 0 to 100), Corn
[5] = Zea mays, post-emergence, Postemergence, 125 g ai/ha, scale 0 to 100 (0 no effect, 100 complete control), read-out: Corn plant response rating
[6] = Eleusine indica, post-emergence, Postemergence, 31 g ai/ha, read-out: Plant response rating (scale of 0 to 100), Goosegrass
[7] = Eleusine indica, post-emergence, Postemergence, 125 g ai/ha, scale 0 to 100 (0 no effect, 100 complete control), read-out: Goosegrass plant response rating
[8] = Urochloa decumbens, post-emergence, Postemergence, 125 g ai/ha, scale 0 to 100 (0 no effect, 100 complete control), read-out: Surinam Grass plant response rating
[9] = Urochloa decumbens, post-emergence, Postemergence, 31 g ai/ha, read-out: Plant response rating (scale of 0 to 100), Surinam Grass
[10] = Postemergence, 62 g ai/ha, scale 0 to 100 (0 no effect, 100 complete control)
[11] = Postemergence, 125 g ai/ha, scale 0 to 100 (0 no effect, 100 complete control)
[12] = Preemergence, 16 g ai/ha, scale 0 to 100, 0 no effect, 100 complete control
[13] = Preemergence, 31 g ai/ha, scale 0 to 100, 0 no effect, 100 complete control
[14] = Preemergence, 62 g ai/ha, scale 0 to 100, 0 no effect, 100 complete control
[15] = Preemergence, 125 g ai/ha, scale 0 to 100
[16] = Postemergence, 250 g ai/ha, scale 0 to 100
[17] = Postemergence, 500 g ai/ha, scale 0 to 100
[18] = Preemergence, 250 g ai/ha, scale 0 to 100
[19] = Preemergence, 500 g ai/ha, scale 0 to 100

SMILES	Plant response rating (scale of 0 to 100), Corn ([1]; Postemergence, 16 g ai/ha)	Plant response rating (scale of 0 to 100), Corn ([1]; Postemergence, 31 g ai/ha)	Corn plant response rating [1, 10]	Corn plant response rating [1, 11]	Plant response rating, Corn [1, 12]	Plant response rating, Corn [1, 13]	Plant response rating, Corn [1, 14]	Plant response rating, Corn [1, 15]	Plant response rating (scale of 0 to 100), Goosegrass ([2]; Postemergence, 16 g ai/ha)	Plant response rating (scale of 0 to 100), Goosegrass ([2]; Postemergence, 31 g ai/ha)	Goosegrass plant response rating [2, 10]	Goosegrass plant response rating [2, 11]	Plant response rating, Goosegrass [2, 12]	Plant response rating, Goosegrass [2, 13]	Plant response rating, Goosegrass [2, 14]	Plant response rating, Goosegrass [2, 15]	Surinam Grass plant response rating [3, 11]	Plant response rating, Surinam Grass [3, 12]	Plant response rating, Surinam Grass [3, 13]	Plant response rating, Surinam Grass [3, 14]	other results
CCOC(=O)c1nc(C2CC2)nc(NN)c1Br [Compound 42]	–	–	–	–	–	–	–	–	–	–	–	–	–	–	–	–	–	–	–	–	Corn plant response rating (crop injury, 0 = no effect, 100 = complete kill) at 31 g/ha [1, 4]: 0%; Corn plant response rating (crop injury, 0 = no effect, 100 = complete kill) at 62 g/ha ([1]; Zea mays, post-emergence, Postemergence, 62 g ai/ha, scale 0 to 100 (0 no effect, 100 complete control), read-out: Corn plant response rating): 0%; Corn plant response rating (crop injury, 0 = no effect, 100 = complete kill) at 125 g/ha [1, 5]: 0%; Corn plant response rating (crop injury, 0 = no effect, 100 = complete kill) at 250 g/ha ([1]; Zea mays, post-emergence, Postemergence, 250 g ai/ha, scale 0 to 100): 0%; pest or weed control at 31 g/ha [2, 6]: 0%; pest or weed control at 62 g/ha ([2]; Eleusine indica, post-emergence, Postemergence, 62 g ai/ha, scale 0 to 100 (0 no effect, 100 complete control), read-out: Goosegrass plant response rating): 0%; pest or weed control at 125 g/ha [2, 7]: 0%; pest or weed control at 250 g/ha ([2]; Eleusine indica, post-emergence, Postemergence, 250 g ai/ha, scale 0 to 100, read-out: Plant response rating, Goosegrass): 0%; pest or weed control at 125 g/ha [3, 8]: 0%; pest or weed control at 31 g/ha [3, 9]: 0%; pest or weed control at 62 g/ha ([3]; Urochloa decumbens, post-emergence, Postemergence, 62 g ai/ha, scale 0 to 100 (0 no effect, 100 complete control), read-out: Surinam Grass plant response rating): 0%; pest or weed control at 250 g/ha ([3]; Urochloa decumbens, post-emergence, Postemergence, 250 g ai/ha, scale 0 to 100, read-out: Plant response rating, Surinam Grass): 0%
CCOC(=O)C(OC(C)=O)c1nc(C2CC2)nc(N)c1Br (stereo not drawn) [Compound 47]	0	0	0	0	0	0	0	0	0	0	0	0	0	45	85	90	20	0	0	0	Plant response rating (scale of 0 to 100), Surinam Grass ([3]; Postemergence, 16 g ai/ha): 0; Plant response rating (scale of 0 to 100), Surinam Grass ([3]; Postemergence, 31 g ai/ha): 0; Surinam Grass plant response rating [3, 10]: 0; Plant response rating, Surinam Grass [3, 15]: 0
CN(C)N=Cc1nc(C2CC2)nc(N)c1Br [Compound 50]	–	–	0	0	–	–	10	10	–	–	0	0	–	–	0	0	0	–	–	0	Plant response rating, Corn [1, 16]: 60; Plant response rating, Corn [1, 17]: 65; Plant response rating, Corn [1, 18]: 20; Plant response rating, Corn [1, 19]: 45; Plant response rating, Goosegrass [2, 16]: 0; Plant response rating, Goosegrass [2, 17]: 0; Plant response rating, Goosegrass [2, 18]: 0; Plant response rating, Goosegrass [2, 19]: 0; Surinam Grass plant response rating [3, 10]: 0; Plant response rating, Surinam Grass [3, 16]: 0; Plant response rating, Surinam Grass [3, 17]: 60; Plant response rating, Surinam Grass [3, 15]: 15; Plant response rating, Surinam Grass [3, 18]: 65; Plant response rating, Surinam Grass [3, 19]: 85
CC(=O)NN=Cc1nc(C2CC2)nc(N)c1Br [Compound 51]	–	–	0	0	–	–	–	–	–	–	0	0	–	–	–	–	0	–	–	–	Plant response rating, Corn [1, 16]: 0; Plant response rating, Corn [1, 17]: 0; Plant response rating, Goosegrass [2, 16]: 0; Plant response rating, Goosegrass [2, 17]: 0; Surinam Grass plant response rating [3, 10]: 0; Plant response rating, Surinam Grass [3, 16]: 0; Plant response rating, Surinam Grass [3, 17]: 0
CCCOC(=O)c1nc(C2CC2)nc(N)c1Cl [Compound 75]	–	–	–	–	–	0	30	65	–	–	–	–	0	0	0	30	–	0	0	55	–
CCCCOC(=O)c1nc(C2CC2)nc(N)c1Cl [Compound 76]	10	35	–	70	0	0	35	45	30	45	–	50	0	0	0	0	–	0	0	0	Plant response rating (scale of 0 to 100), Corn ([1]; Postemergence, 62 g ai/ha): 55; Plant response rating (scale of 0 to 100), Goosegrass ([2]; Postemergence, 62 g ai/ha): 45; Plant response rating (scale of 0 to 100), Surinam Grass ([3]; Postemergence, 16 g ai/ha): 60; Plant response rating (scale of 0 to 100), Surinam Grass ([3]; Postemergence, 31 g ai/ha): 70; Plant response rating (scale of 0 to 100), Surinam Grass ([3]; Postemergence, 62 g ai/ha): 95
Nc1nc(C2CC2)nc(C(=O)[O-])c1Cl.[Na+] [Compound 77, 6-amino-5-chloro-2-cyclopropyl-4-pyrimidinecarboxylic acid monosodium salt]	–	–	–	–	0	0	0	35	–	–	–	–	0	–	–	0	–	0	–	–	pest or weed control at 31 g/ha ([2]; Eleusine indica, pre-emergence, Preemergence, 31 g ai/ha, scale 0 to 100, 0 no effect, 100 complete control, read-out: Plant response rating, Goosegrass): 0%; pest or weed control at 62 g/ha ([2]; Eleusine indica, pre-emergence, Preemergence, 62 g ai/ha, scale 0 to 100, 0 no effect, 100 complete control, read-out: Plant response rating, Goosegrass): 0%; pest or weed control at 31 g/ha ([3]; Urochloa decumbens, pre-emergence, Preemergence, 31 g ai/ha, scale 0 to 100, 0 no effect, 100 complete control, read-out: Plant response rating, Surinam Grass): 0%; pest or weed control at 62 g/ha ([3]; Urochloa decumbens, pre-emergence, Preemergence, 62 g ai/ha, scale 0 to 100, 0 no effect, 100 complete control, read-out: Plant response rating, Surinam Grass): 0%
COC(=O)c1nc(-c2ccc(Cl)cc2)nc(N)c1Br [Compound 83]	5	15	–	60	–	–	–	–	10	10	–	45	–	–	–	–	65	–	–	–	Plant response rating (scale of 0 to 100), Corn ([1]; Postemergence, 62 g ai/ha): 50; Plant response rating (scale of 0 to 100), Goosegrass ([2]; Postemergence, 62 g ai/ha): 30; Plant response rating (scale of 0 to 100), Surinam Grass ([3]; Postemergence, 16 g ai/ha): 20; Plant response rating (scale of 0 to 100), Surinam Grass ([3]; Postemergence, 31 g ai/ha): 30; Plant response rating (scale of 0 to 100), Surinam Grass ([3]; Postemergence, 62 g ai/ha): 45
Nc1nc(C2CC2)nc(C(=O)O)c1Cl [Compound 135, 6-amino-5-chloro-2-cyclopropyl-4-pyrimidinecarboxylic acid]	–	–	–	–	5	30	30	70	–	–	–	–	–	0	0	40	–	–	0	0	Corn plant response rating (crop injury, 0 = no effect, 100 = complete kill) at 16 g/ha ([1]; Zea mays, post-emergence, Postemergence, 16 g ai/ha, read-out: Plant response rating (scale of 0 to 100), Corn): 5%; Corn plant response rating (crop injury, 0 = no effect, 100 = complete kill) at 31 g/ha [1, 4]: 10%; Corn plant response rating (crop injury, 0 = no effect, 100 = complete kill) at 62 g/ha ([1]; Zea mays, post-emergence, Postemergence, 62 g ai/ha, read-out: Plant response rating (scale of 0 to 100), Corn): 20%; Corn plant response rating (crop injury, 0 = no effect, 100 = complete kill) at 125 g/ha [1, 5]: 35%; pest or weed control at 16 g/ha ([2]; Eleusine indica, post-emergence, Postemergence, 16 g ai/ha, read-out: Plant response rating (scale of 0 to 100), Goosegrass): 5%; pest or weed control at 31 g/ha [2, 6]: 35%; pest or weed control at 62 g/ha ([2]; Eleusine indica, post-emergence, Postemergence, 62 g ai/ha, read-out: Plant response rating (scale of 0 to 100), Goosegrass): 45%; pest or weed control at 125 g/ha [2, 7]: 55%; pest or weed control at 16 g/ha ([2]; Eleusine indica, pre-emergence, Preemergence, 16 g ai/ha, scale 0 to 100, 0 no effect, 100 complete control, read-out: Plant response rating, Goosegrass): 0%; pest or weed control at 125 g/ha [3, 8]: 60%; pest or weed control at 16 g/ha ([3]; Urochloa decumbens, post-emergence, Postemergence, 16 g ai/ha, read-out: Plant response rating (scale of 0 to 100), Surinam Grass): 45%; pest or weed control at 31 g/ha [3, 9]: 50%; pest or weed control at 62 g/ha ([3]; Urochloa decumbens, post-emergence, Postemergence, 62 g ai/ha, read-out: Plant response rating (scale of 0 to 100), Surinam Grass): 60%; pest or weed control at 16 g/ha ([3]; Urochloa decumbens, pre-emergence, Preemergence, 16 g ai/ha, scale 0 to 100, 0 no effect, 100 complete control, read-out: Plant response rating, Surinam Grass): 0%
